Test [1] concerns T-Rex 293 cell line SC3 cells having increased expression of androgen receptor protein due to exposure to doxycycline. Nature of the test: Cellular growth inhibition assay, T-Rex 293 SC3 cells with doxycycline (CellTiter-Glo, 72 hours). Format: cell-based. The conditions noted are these: T-Rex 293 SC3 cells with increased androgen receptor expression due to doxycycline (10 ng/mL). In a few lines: (§1)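 Growth inhibition is measured in an inducible AR-expressing T-Rex 293 clone, SC3, cultured with or without 10 ng/mL doxycycline in hormone-depleted medium. Test compounds are applied for 72 hours. GI50 values derive from CellTiter-Glo 2.0 signal fitted by four-parameter regression.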

In test [2] the test system is T-Rex 293 cell line SC3 cells lacking increased expression of androgen receptor protein. Nature of the test: Cellular growth inhibition assay, T-Rex 293 SC3 cells without doxycycline (CellTiter-Glo, 72 hours). Format: cell-based. The conditions noted are these: T-Rex 293 cell line SC3 cells not exposed to doxycycline (lacking increased androgen receptor expression). In a few lines: as §1

The next test concerns VCaP cells. Nature of the test: Cellular growth inhibition assay for VCaP cells (CellTiter-Glo, 72 hours). The class given is cell-based, human. In a few lines: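 Luminescent viability signal after 72 h of compound exposure gave GI50 values by four-parameter nonlinear regression. Compounds were added in 0.5% DMSO to cells plated 24 h earlier at 5000/well in DMEM containing 10% FBS.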

Where two headings read alike, the source gives them in different places.

`Cc1sc2c(c1C)C(c1ccc(OC3CC4(C3)CC3(CCN(c5ccc(C(=O)N[C@H]6CC[C@H](Oc7ccc(C#N)c(Cl)c7)CC6)nn5)CC3)C4)nc1)=NCc1nnc(C)n1-2` [I-479]: the GI50 in test [1] (72 h) is under 500 nM; in test [2] (72 h) it was over 3000 nM; in the test with VCaP cells (Homo sapiens, VCaP, 72 h) it was under 500 nM.

For `Cc1sc2c(c1C)C(c1ccc(N3CCC(CN4CCN(c5ccc(C(=O)N[C@H]6CC[C@H](Oc7ccc(C#N)c(Cl)c7)CC6)nn5)CC4)CC3)cc1)=NC1(CC1)c1nnc(C)n1-2` [I-480], the GI50 was under 500 nM in test [1] (72 h); 500 to 1500 nM in test [2] (72 h); under 500 nM in the test with VCaP cells (Homo sapiens, VCaP, 72 h).

Regarding `Cc1sc2c(c1C)C(c1ccc(C#CC3CC4(CCCN(c5ccc(C(=O)N[C@H]6CC[C@H](Oc7ccc(C#N)c(Cl)c7)CC6)nn5)C4)C3)cn1)=NC(C)c1nnc(C)n1-2` (stereo partly drawn) [I-481], the GI50 (in test [1] (72 h); in test [2]; in the test on VCaP cells) was under 500 nM throughout.

Regarding `Cc1sc2c(c1C)C(c1ccc(OCC3CC4(CCCN(c5ccc(C(=O)N[C@H]6CC[C@H](Oc7ccc(C#N)c(Cl)c7)CC6)nn5)C4)C3)cn1)=N[C@@H](C)c1nnc(C)n1-2` (stereo partly drawn) [I-482], the GI50 in test [1] (72 h) was under 500 nM; in test [2] (72 h), under 500 nM; with VCaP cells (Homo sapiens, VCaP, 72 h), under 500 nM.

In the case of `Cc1sc2c(c1C)C(c1ccc(OCC3CC4(CCCN(c5ccc(C(=O)N[C@H]6CC[C@H](Oc7ccc(C#N)c(Cl)c7)CC6)nn5)C4)C3)cn1)=N[C@@H](C)c1nnc(C)n1-2` (stereo partly drawn) [I-483], the GI50 (in test [1]; in test [2]; in the test on VCaP cells) was under 500 nM throughout.

For `Cc1sc2c(c1C)C(c1ccc(OC3CC4(CCN(c5ccc(C(=O)N[C@H]6CC[C@H](Oc7ccc(C#N)c(Cl)c7)CC6)nn5)CC4)C3)cn1)=N[C@@H](C)c1nnc(C)n1-2` [I-484], the values for the GI50 (in test [1] (72 h); in test [2]; in the test on VCaP cells) were under 500 nM, 500 to 1500 nM and under 500 nM, respectively.

Turning to `Cc1sc2c(c1C)C(c1ccc(N3CCC4(CC3)CCN(c3ccc(C(=O)N[C@H]5CC[C@H](Oc6ccc(C#N)c(Cl)c6)CC5)nn3)CC4)cc1)=N[C@@H](C)c1nnc(C)n1-2` [I-485], the GI50 in test [1] (72 h) was under 500 nM; in test [2] (72 h), under 500 nM; with VCaP cells (Homo sapiens, VCaP, 72 h), under 500 nM.

Take `Cc1sc2c(c1C)C(c1ccc(OCC3CC4(CCCN(c5ccc(C(=O)N[C@H]6CC[C@H](Oc7ccc(C#N)c(Cl)c7)CC6)nn5)C4)C3)nc1)=NC1(CC1)c1nnc(C)n1-2` (stereo partly drawn) [I-486]: the GI50 in test [1] (72 h) was under 500 nM; in test [2] (72 h) it was over 3000 nM; with VCaP cells (Homo sapiens, VCaP, 72 h), under 500 nM.

`Cc1sc2c(c1C)C(c1ccc(OCC3CC4(CCCN(c5ccc(C(=O)N[C@H]6CC[C@H](Oc7ccc(C#N)c(Cl)c7)CC6)nn5)C4)C3)nc1)=NC1(CC1)c1nnc(C)n1-2` (stereo partly drawn) [I-487]: the figures for the GI50 (in test [1]; in test [2]; in the test with VCaP cells) were under 500 nM, over 3000 nM and under 500 nM, respectively.

As to `Cc1sc2c(c1C)C(c1ccc(CC3CC4(CCCN(c5ccc(C(=O)N[C@H]6CC[C@H](Oc7ccc(C#N)c(Cl)c7)CC6)nn5)C4)C3)cc1)=NCc1nnc(C)n1-2` (stereo partly drawn) [I-488], the values for the GI50 (in test [1]; in test [2] (72 h); in the test on VCaP cells) were under 500 nM, over 3000 nM and under 500 nM, respectively.

For `Cc1sc2c(c1C)C(c1ccc(OCC3CC4(CCCN(c5ccc(C(=O)N[C@H]6CC[C@H](Oc7ccc(C#N)c(Cl)c7)CC6)nn5)C4)C3)cc1)=NCc1nnc(C)n1-2` (stereo partly drawn) [I-489], the GI50 in test [1] is under 500 nM; in test [2] it was over 3000 nM; with VCaP cells, under 500 nM.

For the compound `Cc1sc2c(c1C)C(c1ccc(N3CCC4(CC3)CCN(c3ccc(C(=O)N[C@H]5CC[C@H](Oc6ccc(C#N)c(Cl)c6)CC5)nn3)CC4)cc1)=NC1(CC1)c1nnc(C)n1-2` [I-490], the GI50 in test [1] (72 h) was under 500 nM; in test [2] (72 h), over 3000 nM; with VCaP cells (Homo sapiens, VCaP, 72 h) it was over 3000 nM.

As to `Cc1sc2c(c1C)C(c1ccc(N3CCN(CC4CCN(c5ccc(C(=O)N[C@H]6CC[C@H](Oc7ccc(C#N)c(Cl)c7)CC6)nn5)CC4)CC3)cc1)=NC1(CC1)c1nnc(C)n1-2` [I-491], the GI50 in test [1] (72 h) is under 500 nM; in test [2] (72 h), under 500 nM; in the test on VCaP cells (Homo sapiens, VCaP, 72 h), over 3000 nM.

For `Cc1sc2c(c1C)C(c1ccc(N3CCC(CC4CCN(c5ccc(C(=O)N[C@H]6CC[C@H](Oc7ccc(C#N)c(Cl)c7)CC6)nn5)CC4)CC3)cc1)=NC1(CC1)c1nnc(C)n1-2` [I-492], the concentration for 50% growth inhibition (GI50) in test [1] (72 h) is under 500 nM; in test [2] (72 h), over 3000 nM; in the test on VCaP cells (Homo sapiens, VCaP, 72 h), under 500 nM.

Regarding `Cc1sc2c(c1C)C(c1ccc(COC3CCC4(CCCN(c5ccc(C(=O)N[C@H]6CC[C@H](Oc7ccc(C#N)c(Cl)c7)CC6)nn5)C4)C3)cc1)=NC1(CC1)c1nnc(C)n1-2` (stereo partly drawn) [I-493], the GI50 in test [1] (72 h) is under 500 nM; in test [2], 500 to 1500 nM; in the test with VCaP cells, over 3000 nM.

Consider `Cc1sc2c(c1C)C(c1ccc(C3CCC4(CC3)CCN(c3ccc(C(=O)N[C@H]5CC[C@H](Oc6ccc(C#N)c(Cl)c6)CC5)nn3)C4)cc1)=N[C@@H](C)c1nnc(C)n1-2` (stereo partly drawn) [I-494], for which the GI50 was under 500 nM in test [1]; under 500 nM in test [2] (72 h); under 500 nM with VCaP cells (Homo sapiens, VCaP, 72 h).

For `Cc1sc2c(c1C)C(c1ccc(C3CCC4(CC3)CCN(c3ccc(C(=O)N[C@H]5CC[C@H](Oc6ccc(C#N)c(Cl)c6)CC5)nn3)C4)cc1)=N[C@@H](C)c1nnc(C)n1-2` (stereo partly drawn) [I-495], the GI50 was over 3000 nM in test [1], under 500 nM in test [2] and under 500 nM in the test on VCaP cells.

As to `Cc1sc2c(c1C)C(c1ccc(C3CCC4(CCN(c5ccc(C(=O)N[C@H]6CC[C@H](Oc7ccc(C#N)c(Cl)c7)CC6)nn5)CC4)C3)cc1)=N[C@@H](C)c1nnc(C)n1-2` (stereo partly drawn) [I-496], the GI50 in test [1] (72 h) is under 500 nM; in test [2] (72 h), over 3000 nM; with VCaP cells it was under 500 nM.

Regarding `Cc1sc2c(c1C)C(c1ccc(C3CCC4(CCN(c5ccc(C(=O)N[C@H]6CC[C@H](Oc7ccc(C#N)c(Cl)c7)CC6)nn5)CC4)C3)cc1)=N[C@@H](C)c1nnc(C)n1-2` (stereo partly drawn) [I-497], the GI50 in test [1] was under 500 nM; in test [2], over 3000 nM; in the test with VCaP cells, 1500 to 3000 nM.

As to `Cc1sc2c(c1C)C(c1ccc(N3CCN(CC4CCN(c5ccc(C(=O)N[C@H]6CC[C@H](Oc7ccc(C#N)c(Cl)c7)CC6)nn5)CC4)CC3)cc1)=N[C@@H](C)c1nnc(C)n1-2` [I-498], the GI50 in test [1] (72 h) was under 500 nM; in test [2] (72 h) it was over 3000 nM; in the test with VCaP cells (Homo sapiens, VCaP, 72 h) it was under 500 nM.

As for `Cc1sc2c(c1C)C(c1ccc(N3CCC(CN4CCN(c5ccc(C(=O)N[C@H]6CC[C@H](Oc7ccc(C#N)c(Cl)c7)CC6)nn5)CC4)CC3)cc1)=N[C@@H](C)c1nnc(C)n1-2` [I-499], the GI50 in test [1] (72 h) was under 500 nM; in test [2] (72 h), over 3000 nM; in the test with VCaP cells (Homo sapiens, VCaP, 72 h), under 500 nM.

As for `Cc1sc2c(c1C)C(c1ccc(N3CCC(CC4CCN(c5ccc(C(=O)N[C@H]6CC[C@H](Oc7ccc(C#N)c(Cl)c7)CC6)nn5)CC4)CC3)cc1)=N[C@@H](C)c1nnc(C)n1-2` [I-500], the GI50 is under 500 nM in test [1] (72 h); over 3000 nM in test [2] (72 h); over 3000 nM in the test with VCaP cells (Homo sapiens, VCaP, 72 h).

For the compound `Cc1sc2c(c1C)C(c1ccc(N3CCC4(CCCN(c5ccc(C(=O)N[C@H]6CC[C@H](Oc7ccc(C#N)c(Cl)c7)CC6)nn5)C4)CC3)cn1)=NC1(CC1)c1nnc(C)n1-2` [I-501], the GI50 was under 500 nM in test [1] (72 h); over 3000 nM in test [2] (72 h); under 500 nM in the test on VCaP cells (Homo sapiens, VCaP, 72 h).

In the case of `Cc1sc2c(c1C)C(c1ccc(N3CCC4(CC3)CCN(c3ccc(C(=O)N[C@H]5CC[C@H](Oc6ccc(C#N)c(Cl)c6)CC5)nn3)C4)cn1)=NC1(CC1)c1nnc(C)n1-2` [I-502], the GI50 in test [1] (72 h) is under 500 nM; in test [2] (72 h) it was over 3000 nM; in the test on VCaP cells (Homo sapiens, VCaP, 72 h), over 3000 nM.

(Values after patent US20260109707A1, “HETEROBIFUNCTIONAL COMPOUNDS AND METHODS OF TREATING DISEASE” (Halda Therapeutics OpCo. Inc., priority 2022, published 2026).)
